Data on 2 molecules can be found in patent US6114371A, “3-(cyclohexanoheteroarylidenyl)-2-indolinone protein tyrosine kinase inhibitors” (Sugen, Inc., priority 1998, dated 2000).

Bounds are passed on as bounds.

In assay [1] the test system is HUV-EC-C cells. Briefly: HUV-EC-C assay, VEGF (3H-thymidine incorporation). It is filed as cell-based, human. The following applies: Table 2, VEGF-stimulated HUV-EC-C, read-out: HUV-EC-C ATCC VEGF IC50. The procedure:
(§1) The following protocol may also be used to measure a compound's activity against PDGF-R, FGF-R, VEGF, aFGF or Flk-1/KDR, all of which are naturally expressed by HUV-EC cells.
(§2) 1. […] After cells have detached from the flask, add an equal volume of assay medium and transfer to a 50 mL sterile centrifuge tube (Fisher Scientific; catalogue no. 05-539-6).
(§3) 1. Make up two-fold drug titrations in separate 96-well plates, generally 50 μM on down to 0 μM. Use the same assay medium as mentioned in day 0, step 2 above. Titrations are made by adding 90 μl/well of drug at 200 μM (4×the final well concentration) to the top well of a particular plate column. Since the stock drug concentration is usually 20 mM in DMSO, the 200 μM drug concentration contains 2% DMSO.
Therefore, diluent made up to 2% DMSO in assay medium (F12K+0.5% fetal bovine serum) is used as diluent for the drug titrations in order to dilute the drug but keep the DMSO concentration constant. Add this diluent to the remaining wells in the column at 60 μl/well. […]
(§4) 1. Thaw plates and harvest with a 96-well plate harvester (Tomtec Harvester 96®) onto filter mats (Wallac; catalogue no. 1205-401); read counts on a Wallac Betaplate™ liquid scintillation counter.
(§5) The IC50 values were measured for several of the compounds of the invention.

In a further assay the target is T1, FLK-1 receptor (Mus musculus, UniProt P35918).
T1 construct: expressed in transfected cells; host or cells: NIH3T3 C7#3 cells
Put plainly: FLK-1 ELISA (kinase activity of the FLK-1 receptor in engineered cells). It is filed as cell-based. The conditions noted are these: Table 2; read-out: FLK-1R IC50.

In assay [2] the target is T2, PDGFr (Homo sapiens, UniProt P09619). Put plainly: PDGF-R ELISA. In kind it is cell-based. Details: cells (U1242, obtained from Joseph Schlessinger, NYU); endogenous in cells; host or cells: U1242.
Experimental: All cell culture media, glutamine, and fetal bovine serum can be purchased from Gibco Life Technologies (Grand Island, N.Y.) unless otherwise specified. […] All cell lines are routinely subcultured twice a week and are negative for mycoplasma as determined by the Mycotect method (Gibco).
For ELISA assays, cells (U1242, obtained from Joseph Schlessinger, NYU) are grown to 80-90% confluency in growth medium (MEM with 10% FBS, NEAA, 1 mM NaPyr and 2 mM GLN) and seeded in 96-well tissue culture plates in 0.5% serum at 25,000 to 30,000 cells per well. After overnight incubation in 0.5% serum-containing medium, cells are changed to serum-free medium and treated with test compound for 2 hr in a 5% CO2, 37° C. incubator. […] Lysates are incubated with shaking for 1 hour at room temperature. The plates are washed with TBST four times and then incubated with polyclonal anti-phosphotyrosine antibody at room temperature for 30 minutes. Excess anti-phosphotyrosine antibody is removed by rinsing the plate with TBST four times. Goat anti-rabbit IgG antibody is added to the ELISA plate for 30 min at room temperature followed by rinsing with TBST four more times. […] Absorbance at 410 nm with a reference wavelength of 630 nm is recorded about 15 to 30 min after ABTS addition.
A further assay addresses FAK (Homo sapiens, UniProt Q05397). Put plainly: FAK assay. It is filed as biochemical. The following applies: Table 2.
In the next assay the target is T3, lck protein kinase (Homo sapiens, UniProt P06239).
T3 construct: made in house; host or cells: Schizosaccharomyces pombe strain SP200 (lysate)
Briefly: Biochemical lck assay - ELISA. The procedure:
This assay is used to determine lck protein kinase activities measuring phosphorylation of GST-.zeta. as the readout.
b. Yeast transformed with lck. […] S. Pombe strain SP200 (h-s leul.32 ura4 ade210) is grown as described and transformations with pRSP expression plasmids are done by the lithium acetate method (Superti-Furga, supra). Cells are grown in the presence of 1 μM thiamine to induce expression.
2. Add 0.08 mL Kinase Reaction Mixture per well (containing 10 μl of 10×Kinase Buffer and 2 μg GST-.zeta. per well diluted with water).
(§6) 3. Add 10 μL of compound diluted in water containing 10% DMSO and pre-incubate for 15 minutes at room temperature.
4. Start kinase reaction by adding 10 μL/well of 0.1 mM ATP in water (10 μM ATP final).
The IC50 values were measured for one of the compounds of the invention.

Assay [3] has as its target T4, EGFr (Homo sapiens, UniProt P00533). Briefly: EGF receptor ELISA. In kind it is cell-based. Details: expressed in transfected cells; host or cells: NIH 3T3/C7. The following applies: Table 2; read-out: EGFR IC50. The procedure: EGF Receptor kinase activity in cells genetically engineered to express human EGF-R can be measured as described below:
1. Check seeded cells for contamination using an inverted microscope. Dilute drug stock (10 mg/mL in DMSO) 1:10 in DMEM medium, then transfer 5 μL to a test well for a final drug dilution of 1:200 and a final DMSO concentration of 1%. Control wells receive DMSO alone. Incubate in 5% CO2 at 37° C. for one hour.
5. After two hours incubation with drug, add prepared EGF ligand to cells, 10 μL per well, to yield a final concentration of 25 nM. Control wells receive DMEM alone. Incubate, shaking, at room temperature, for 5 minutes.
12. The maximal phosphotyrosine signal is determined by subtracting the value of the negative controls from the positive controls. The percent inhibition of phosphotyrosine content for extract-containing wells is then calculated, after subtraction of the negative controls.

The test system of assay [4] is HUV-EC-C cells. Put plainly: HUV-EC-C assay, aFGF (3H-thymidine incorporation). It is filed as cell-based, human. How it is done: as §1, §2, §3
Therefore, diluent made up to 2% DMSO in assay medium (F12K+0.5% fetal bovine serum) is used as diluent for the drug titrations in order to dilute the drug but keep the DMSO concentration constant. Add this diluent to the remaining wells in the column at 60 μl/well. Take 60 μl from the 120 μl of 200 μM drug dilution in the top well of the column and mix with the 60 μl in the second well of the column. Take 60 μl from this well and mix with the 60 μl in the third well of the column, and so on until two-fold titrations are completed. When the next-to-the-last well is mixed, take 60 μl of the 120 μl in this well and discard it. Leave the last well with 60 μl of DMSO/media diluent as a non-drug-containing control. Make 9 columns of titrated drug, enough for triplicate wells each for 1) VEGF (obtained from Pepro Tech Inc., catalogue no. 100-200, 2) endothelial cell growth factor (ECGF) (also known as acidic fibroblast growth factor, or aFGF) (obtained from Boehringer Mannheim Biochemica, catalogue no. 1439 600); or, 3) human PDGF B/B (1276-956, Boehringer Mannheim, Germany) and assay media control. ECGF comes as a preparation with sodium heparin.
2. Transfer 50 μl/well of the drug dilutions to the 96-well assay plates containing the 0.8-1.0×10^4 cells/100 μl/well of the HUV-EC-C cells from day 0 and incubate ~2 h at 37° C., 5% CO2.
3. In triplicate, add 50 μl/well of […] VEGF, 20 ng/mL ECGF, or media control to each drug condition. As with the drugs, the growth factor concentrations are 4×the desired final concentration. Use the assay media from day 0 step 2 to make the concentrations of growth factors. Incubate approximately 24 hours at 37° C., 5% CO2. Each well will have 50 μl drug dilution, 50 μl growth factor or media, and 100 ul cells, =200 ul/well total. Thus the 4×concentrations of drugs and growth factors become 1× once everything has been added to the wells.
1. Add ^3 H-thymidine (Amersham; catalogue no. TRK-686) at 1 μCi/well (10 μl/well of 100 μCi/mL solution made up in RPMI media+10% heat-inactivated fetal bovine serum) and incubate ~24 h at 37° C., 5% CO2. RPMI is obtained from Gibco BRL, catalogue no. 11875-051.
as §4, §5

In a further assay the target is T5, src protein kinase (Gallus gallus, UniProt P00523).
T5 construct: made in house; host or cells: Schizosaccharomyces pombe (yeast transformed with src, lysate)
Put plainly: Biochemical src assay - ELISA. The procedure: This assay is used to determine src protein kinase activity measuring phosphorylation of a biotinylated peptide as the readout.
h. […] S. Pombe strain SP200 (h-s leul.32 ura4 ade210) is grown as described and transformations are pRSP expression plasmids are done by the lithium acetate method (Superti-Furga, supra). Cells are grown in the presence of 1 μM thiamine to repress expression from the nmtl promoter or in the absence of thiamine to induce expression.
2. Add 0.08 mL Kinase Reaction Mixture per well (containing 10 μL of 10×Kinase Buffer and 10 μM (final concentration) biotin-[…] per well diluted in water.
as §6
4. Start kinase reaction by adding 10 μL/well of 0.05 mM ATP in water (5 μM ATP final).
as §5

Assay [5] deals with Myc-GyrB-FGFR fusion protein. Briefly: Assay measuring the kinase activity of the FGF receptor (Myc-GyrB-FGFR fusion protein). In kind it is biochemical. The conditions noted are these: Table 5; 7 μM ATP. The procedure: The following protocol describes the reagents and procedures used to analyze protein tyrosine kinase activity of the Myc-GyrB-FGFR fusion protein.
5. Add 15 μg COS/FGFR cell lysate Myc-GyrB-FGFR sources per well in HNTG for a final volume of 100 μL per well. Incubate while shaking on a micro-liter plate shaker at room temperature for 2 hours.
9. At this point diluted Compounds/Extracts are added to the ELISA plate. Transfer 10 μL of diluted test and control wells from the polypropylene plate wells to the corresponding ELISA plate wells. Incubate while shaking on a micro-liter plate shaker at room temperature for 20 minutes.
10. Add 10 μL of 70 μM ATP diluted in kinase buffer to positive control and test wells (Final ATP concentration is 7 μM/well.) Add 10 μL of 1×kinase buffer to negative control wells. Incubate while shaking on a micro-liter plate shaker at room temperature for 15 min.
22. Read assay on Dynatech MR7000 ELISA Plate Reader.
as §5

In assay [6] the target is T4, EGFr. Briefly: EGF-induced BrdU incorporation assay. It is filed as cell-based. The following applies: Table 8.
Assay [7] has as its target T2, PDGFr. Briefly: PDGF-induced BrdU incorporation assay. In kind it is cell-based. Details: expressed in transfected cells; host or cells: 3T3 cell line. The following applies: Table 8; BrdU incorporation, 3.8 nM PDGF; read-out: PDGFr IC50.
Experimental: (8) 3T3 cell line genetically engineered to express human PDGF-R.
Cells were seeded at 8000 cells/well in DMEM, 10% CS, 2 mM Gln in a 96 well plate. Cells were incubated overnight at 37° C. in 5% CO2.
The negative control wells received serum free DMEM with 0.1% BSA only; the positive control cells received the ligand (PDGF) but no test compound.
The absorbance of the samples were measured at 410 nm (in "dual wavelength" mode with a filter reading at 490 nm, as a reference wavelength) on a Dynatech ELISA plate reader.
The next assay concerns FGFr. Briefly: FGF-induced BrdU incorporation assay. It is filed as cell-based. The following applies: Table 8.

T2 sequence (P09619 33-1106): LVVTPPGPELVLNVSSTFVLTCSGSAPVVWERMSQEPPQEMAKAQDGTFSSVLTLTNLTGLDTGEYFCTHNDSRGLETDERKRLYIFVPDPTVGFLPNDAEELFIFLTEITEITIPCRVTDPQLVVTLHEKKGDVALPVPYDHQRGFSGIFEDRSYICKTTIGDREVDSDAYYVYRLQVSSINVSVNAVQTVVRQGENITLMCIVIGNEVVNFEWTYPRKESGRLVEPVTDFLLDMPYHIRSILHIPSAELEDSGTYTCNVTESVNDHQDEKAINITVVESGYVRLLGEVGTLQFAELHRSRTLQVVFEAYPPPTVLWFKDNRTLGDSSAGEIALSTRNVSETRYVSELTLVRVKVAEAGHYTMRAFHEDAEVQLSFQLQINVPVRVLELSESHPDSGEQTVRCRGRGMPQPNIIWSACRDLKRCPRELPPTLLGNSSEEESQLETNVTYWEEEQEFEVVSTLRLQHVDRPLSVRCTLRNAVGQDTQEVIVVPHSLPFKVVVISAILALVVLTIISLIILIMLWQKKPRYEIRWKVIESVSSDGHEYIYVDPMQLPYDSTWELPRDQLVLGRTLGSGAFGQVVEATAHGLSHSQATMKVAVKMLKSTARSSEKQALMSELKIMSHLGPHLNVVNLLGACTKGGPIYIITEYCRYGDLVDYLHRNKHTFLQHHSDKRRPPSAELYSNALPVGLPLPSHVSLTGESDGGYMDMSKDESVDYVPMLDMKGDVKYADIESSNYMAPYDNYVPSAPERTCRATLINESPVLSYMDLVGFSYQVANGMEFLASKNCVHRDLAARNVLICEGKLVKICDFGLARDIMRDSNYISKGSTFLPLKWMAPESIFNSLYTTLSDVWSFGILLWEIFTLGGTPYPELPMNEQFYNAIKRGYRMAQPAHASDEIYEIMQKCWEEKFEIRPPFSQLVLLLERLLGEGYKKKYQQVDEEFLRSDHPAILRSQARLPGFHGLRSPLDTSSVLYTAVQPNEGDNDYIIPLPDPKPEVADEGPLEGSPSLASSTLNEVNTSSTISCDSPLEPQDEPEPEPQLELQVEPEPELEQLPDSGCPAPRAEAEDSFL
T3 sequence (P06239 whole entry): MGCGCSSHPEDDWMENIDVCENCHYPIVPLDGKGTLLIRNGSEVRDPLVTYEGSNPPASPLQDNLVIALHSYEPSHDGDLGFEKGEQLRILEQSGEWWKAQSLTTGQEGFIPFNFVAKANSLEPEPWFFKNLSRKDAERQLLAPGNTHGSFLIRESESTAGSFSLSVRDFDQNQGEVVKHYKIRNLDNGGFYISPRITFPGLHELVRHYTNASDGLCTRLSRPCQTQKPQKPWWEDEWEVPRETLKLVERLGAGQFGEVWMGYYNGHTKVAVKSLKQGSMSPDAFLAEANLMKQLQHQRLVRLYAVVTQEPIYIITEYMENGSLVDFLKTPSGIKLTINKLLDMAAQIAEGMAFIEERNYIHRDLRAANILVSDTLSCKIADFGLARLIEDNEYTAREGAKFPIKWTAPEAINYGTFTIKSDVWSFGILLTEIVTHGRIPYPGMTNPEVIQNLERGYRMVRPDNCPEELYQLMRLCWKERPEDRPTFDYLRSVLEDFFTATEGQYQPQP
T4 sequence (P00533 25-1210): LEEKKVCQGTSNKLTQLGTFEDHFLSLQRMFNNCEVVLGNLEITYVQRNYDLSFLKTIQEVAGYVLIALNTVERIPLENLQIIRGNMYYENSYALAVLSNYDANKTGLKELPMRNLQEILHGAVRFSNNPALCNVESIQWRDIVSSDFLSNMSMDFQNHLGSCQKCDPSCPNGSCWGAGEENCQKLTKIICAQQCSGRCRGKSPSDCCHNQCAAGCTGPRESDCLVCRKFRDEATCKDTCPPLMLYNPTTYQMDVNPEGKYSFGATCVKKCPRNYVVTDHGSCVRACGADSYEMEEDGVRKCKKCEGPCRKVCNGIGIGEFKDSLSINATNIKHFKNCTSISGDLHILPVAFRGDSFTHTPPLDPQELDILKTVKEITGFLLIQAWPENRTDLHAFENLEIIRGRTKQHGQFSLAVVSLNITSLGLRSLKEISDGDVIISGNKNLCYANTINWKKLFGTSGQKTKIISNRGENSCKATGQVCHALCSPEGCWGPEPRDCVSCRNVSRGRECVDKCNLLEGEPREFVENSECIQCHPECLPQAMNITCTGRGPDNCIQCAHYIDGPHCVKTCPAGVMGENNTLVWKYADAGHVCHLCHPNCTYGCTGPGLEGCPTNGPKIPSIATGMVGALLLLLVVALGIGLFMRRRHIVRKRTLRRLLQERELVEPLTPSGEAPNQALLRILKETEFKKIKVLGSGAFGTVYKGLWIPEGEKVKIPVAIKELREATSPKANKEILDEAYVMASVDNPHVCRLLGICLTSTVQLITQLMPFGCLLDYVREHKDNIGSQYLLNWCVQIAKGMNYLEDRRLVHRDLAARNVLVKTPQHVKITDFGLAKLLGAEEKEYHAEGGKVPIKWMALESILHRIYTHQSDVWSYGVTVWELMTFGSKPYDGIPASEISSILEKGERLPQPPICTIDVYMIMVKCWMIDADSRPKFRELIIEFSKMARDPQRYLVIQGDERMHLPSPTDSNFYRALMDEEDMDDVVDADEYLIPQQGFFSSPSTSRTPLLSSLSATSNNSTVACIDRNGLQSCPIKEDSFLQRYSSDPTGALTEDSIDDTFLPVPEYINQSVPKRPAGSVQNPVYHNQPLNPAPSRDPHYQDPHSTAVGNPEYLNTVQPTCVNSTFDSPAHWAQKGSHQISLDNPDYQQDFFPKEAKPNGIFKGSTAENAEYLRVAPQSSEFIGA
T1 sequence (P35918 20-1345): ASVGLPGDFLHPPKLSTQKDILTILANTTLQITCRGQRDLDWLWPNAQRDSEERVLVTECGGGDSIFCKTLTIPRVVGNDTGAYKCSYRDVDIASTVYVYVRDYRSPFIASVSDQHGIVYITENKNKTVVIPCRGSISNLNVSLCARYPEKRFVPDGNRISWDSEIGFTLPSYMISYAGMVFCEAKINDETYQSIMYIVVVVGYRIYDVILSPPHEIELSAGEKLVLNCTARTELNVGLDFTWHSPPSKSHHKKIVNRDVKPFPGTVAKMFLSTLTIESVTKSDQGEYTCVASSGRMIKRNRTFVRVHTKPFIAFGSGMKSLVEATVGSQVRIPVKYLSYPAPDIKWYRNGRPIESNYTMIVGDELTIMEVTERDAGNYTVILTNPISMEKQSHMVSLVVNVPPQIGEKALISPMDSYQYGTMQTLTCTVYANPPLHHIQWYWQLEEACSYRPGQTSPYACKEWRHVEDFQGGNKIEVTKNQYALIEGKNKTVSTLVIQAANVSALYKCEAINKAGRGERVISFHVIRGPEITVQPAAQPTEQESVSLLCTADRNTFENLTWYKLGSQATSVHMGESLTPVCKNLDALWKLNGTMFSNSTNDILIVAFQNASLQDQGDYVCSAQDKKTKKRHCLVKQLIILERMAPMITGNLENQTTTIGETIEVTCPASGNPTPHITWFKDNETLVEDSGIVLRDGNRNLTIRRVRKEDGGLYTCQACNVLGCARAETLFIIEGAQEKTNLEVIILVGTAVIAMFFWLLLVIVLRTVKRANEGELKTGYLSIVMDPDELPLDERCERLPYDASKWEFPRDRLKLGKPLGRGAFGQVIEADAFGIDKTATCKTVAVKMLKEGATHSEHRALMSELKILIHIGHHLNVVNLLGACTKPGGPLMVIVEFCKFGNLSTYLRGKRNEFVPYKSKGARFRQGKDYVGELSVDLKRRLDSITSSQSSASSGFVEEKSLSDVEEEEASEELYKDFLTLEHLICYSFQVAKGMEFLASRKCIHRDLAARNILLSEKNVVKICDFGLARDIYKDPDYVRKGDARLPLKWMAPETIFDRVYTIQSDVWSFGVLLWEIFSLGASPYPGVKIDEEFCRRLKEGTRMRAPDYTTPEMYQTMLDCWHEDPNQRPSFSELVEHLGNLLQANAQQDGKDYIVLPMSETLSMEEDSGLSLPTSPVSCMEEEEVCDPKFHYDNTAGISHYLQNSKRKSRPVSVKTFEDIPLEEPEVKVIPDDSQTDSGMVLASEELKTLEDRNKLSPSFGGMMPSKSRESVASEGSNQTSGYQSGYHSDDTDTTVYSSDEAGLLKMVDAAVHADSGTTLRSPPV

In the case of `NS(=O)(=O)c1ccc2c(c1)C(=Cc1cc3c([nH]1)CCCC3)C(=O)N2`, the IC50 in the assay on HUV-EC-C cells [1] (Homo sapiens) is 0.65 µM; with HUV-EC-C cells [1], 1.07 µM; on FLK-1 receptor, greater than 100 µM; on PDGFr [2] (read-out: PDGFR IC50, Table 2), 1 µM; at FAK, greater than 10 µM; on lck protein kinase (Table 2), 0.7 µM. The IC50 on EGFr [3] was greater than 100 µM; in the assay with HUV-EC-C cells [4] (Homo sapiens, Table 2, aFGF-stimulated HUV-EC-C, read-out: HUV-EC-C ATCC aFGF IC50), 2.4 µM; with HUV-EC-C cells [4] (Table 2, aFGF-stimulated HUV-EC-C, read-out: HUV-EC-C ATCC aFGF IC50), 3.3 µM; against src protein kinase (Table 2), 0.8 µM.
`CC(=O)c1ccc2c(c1)C(=Cc1cc3c([nH]1)CCCC3)C(=O)N2` [5-acetyl-3-(4,5,6,7-tetrahydro-1H-indol-2-ylmethylene)-1,3-dihydro-indol-2-one]: the half-inhibitory concentration (IC50) on PDGFr [2] (Table 4, ligand-stimulated U1242 cells, read-out: PDGF-R IC50) was greater than 100 µM; in assay [5], greater than 20 µM; on EGFr [6] it was 36.5 µM; on PDGFr [7] it was greater than 0.07 µM; at lck protein kinase (Table 7, 10 μM ATP, GST-zeta substrate) it was greater than 100 µM; with FGFr it was greater than 50 µM. For the same molecule, the half-maximal inhibitory concentration (IC50) with HUV-EC-C cells [4] (Homo sapiens, Table 9, aFGF (ECGF)-stimulated HUV-EC-C, 3H-thymidine, read-out: aFGF IC50) was determined as 28.8 µM; against src protein kinase (Table 6, 5 μM ATP, biotinylated peptide substrate) it was 17.8 µM.
